5 molecules from paper PMC9394474 (Viruses, 2022) can be followed below.

The target in the assay is human hisTRIM7-PRYSPRY (Homo sapiens, UniProt Q9C029). The assay is described as follows: ITC binding to human TRIM7 PRYSPRY (wild type).

Several values for one entry are separate records, joined by “and”; a condition that tells them apart may be missing. Equal values may be shown once. Read-outs that look alike come from different tables or passages of the source. Ends that are not written are not given here. Peptide text beside a SMILES is read from it.

The term Kd denotes the equilibrium constant for the complex coming apart. A higher Kd goes with a looser complex. As for AAAAALQ [polyA-LQ], the Kd was 8.92 µM and 8 µM. On the same count and under the same terms, the value for `CC(=O)N[C@@H](CC(C)C)C(=O)N[C@@H](CC(C)C)C(=O)N[C@@H](CCC(N)=O)C(=O)O` [Ac-LLQ] (Ac-Leu-Leu-Gln-OH) was 38.7 ± 5.16 µM.

DNIKKKLDTYLQ [rbGYG322-333] returned a dissociation constant (Kd) (KD, ITC, one-site model, 15 °C, 50 mM phosphate pH 6.5, 1 mM DTT, TRIM7 500 µM, ligand 100 µM (peptide 50 µM), representative trace and fit) of 21 ± 1.8 µM.

Consider AIEALFQ [AIEALFQ], for which the Kd came to 17 ± 4.3 µM. Same read-out and setting: the value for `CC(C)C[C@H](N)C(=O)N[C@@H](CCC(N)=O)C(=O)O` [LQ] (H-Leu-Gln-OH) was 201 ± 30 µM.
